Here are results for 1 molecule from patent US8940936B2, “Aryloxy phenoxy acrylic compound having HIF-1 inhibition activity, method for preparing same, and pharmaceutical composition containing same as an active ingredient” (Korea Research Institute of Bioscience and Biotechnology, priority 2010, dated 2015).

One assay has as its system HIF-1. Put plainly: Inhibition of HIF-1 mediated HRE transcription activity (pGL3-HRE-luciferase reporter). The assay is classed as cell-based, human. As to conditions: for HRE transcription activity (%): HCT116, hypoxic condition 12 hours. As for the experimental part: To investigate the inhibition of HIF-1 transcription activity by the compound of the present invention, pGL3-basic vector (Promega) using luciferase as a reporter was cloned in multi-cloning site so as for HRE (Hypoxia Responsive Element, 5′-ACGTG-3′) existing in human VEGF gene to be repeated 6 times, resulting in the construction of pGL3-HRE-luciferase vector.
The human rectal cancer cell line HCT116 was seeded in a 48-well cell culture vessel. On the next day, the cells were transfected with 25 ng of pGL3-HRE-luciferase vector and 2.5 ng of Renilla control vector by using Polyfect reagent. After culturing the cells for 24 hours, the medium was replaced, followed by further culture for 4 hours. Then, the cells were treated with the compound prepared in each example at the concentration of 10 μM respectively, followed by culture in hypoxic condition (oxygen 1%, nitrogen 94%, carbon dioxide 5%) for 12 hours. Lysate was obtained by using RIPA buffer, by which hypoxia-induced luciferase activity was measured by using dual-luciferase assay system (Promega). Hypoxia-induced luciferase activity after the treatment of the compound prepared in example 1 or the compound prepared in comparative example 1 was measured by the same manner as described above except that the compound was treated at the concentrations of 0, 1, 3, 5, 10, and 20 μM. HIF-1 inhibition activity of each compound prepared in example 1 and comparative example 1 respectively was compared and the results are shown in Table 2 and FIG. 2.

The test system of the next assay is HIF-1α. Put plainly: HIF-1α expression in tumor tissue (tumor tissue immune response experiment, Caki-1 model). The assay is classed as in vivo, mouse. As to conditions: Caki-1 tumor, optical microscope; FIG. 6. As for the experimental part:
In addition, to investigate whether or not the anticancer activity shown in experimental example 5 was attributed to the decrease of HIF-1α expression, tumor tissue immune response experiment was performed.

As for `COC(=O)c1cccc(NC(=O)/C=C/Oc2ccc(C34CC5CC(CC(C5)C3)C4)cc2)c1` [Example 1, (E)-3-[3-(4-Adamantan-1-yl-phenoxy)-acryloylamino]-benzoic acid methyl ester], the “HRE transcription activity (%)” value in the assay with HIF-1 (1 μM) came to 57.7%; in the assay on HIF-1 (3 μM), 32.1%; in the assay with HIF-1 (5 μM) it was 25.4%; with HIF-1 (10 μM) it was 23.0%; in the assay with HIF-1 (20 μM) it was 19.8%. In addition, in the assay with HIF-1 (cancer cell line HCT116, hypoxia), the “inhibition effect on HRE transcription activity compared with the compound of comparative example 1” value is recorded as “at least three times higher inhibition effect”. Also, the “HIF-1α expression in tumor tissue” value in the assay with HIF-1α is “significantly reduced”.
